The values below are quoted from earlier work in PMC5532403, “Potential for a novel manganese porphyrin compound as adjuvant canine lymphoma therapy” (Cancer Chemotherapy and Pharmacology, 2017).

Data set [1] concerns murine lymphoma cell lines. On the set-up: method as in PMID 19549914, PMID 25725417. The note with it: in vitro; cited from earlier work.
For data set [2], the system named is primary human lymphoma samples. On the set-up: method as in PMID 19549914, PMID 25725417. The note with it: ex vivo; cited from earlier work.
On the set-up of data set [3]: method as in PMID 26496207. The conditions noted are these: cited from earlier work.

For the compound `CC[n+]1ccccc1-c1c2nc(c(-c3cccc[n+]3CC)c3ccc([n-]3)c(-c3cccc[n+]3CC)c3nc(c(-c4cccc[n+]4CC)c4ccc1[n-]4)C=C3)C=C2.[Mn+3]` [MnTE-2-PyP5+], the “effect on chemotherapeutic response” value in data set [1] and in data set [2] was “enhanced the chemotherapeutic response” each time. The “tissue accumulation, tumor compared to normal tissue” value in data set [3] is on record as “accumulates preferentially in tumor tissue compared to normal tissue”.
